`CS(=O)(=O)/N=C/NC1CCN(Cc2ccc3c(c2)Nc2nccnc2S3)CC1` showed a melting point of 119 to 122 °C. For `Cl.Oc1ccc2c(c1)Nc1nccnc1N2`, the melting point was over 275 °C. `O=c1ccn(Cc2ccc3c(c2)Nc2nccnc2S3)cc1` gave a melting point of over 275 °C. With `N#C/N=C(/Cc1ccc2c(c1)Nc1nccnc1S2)NCc1ccccn1` the melting point was 195 to 196 °C. With `N/C(Cc1ccc2c(c1)Nc1nccnc1S2)=N\S(N)(=O)=O` the melting point was > 260 °C (dec.). In the case of `CNC(Cc1ccc2c(c1)Nc1nccnc1S2)=NC#N`, the melting point is reported as 233 to 234 °C (dec.). With `CN(C)S(=O)(=O)NC1CCN(Cc2ccc3c(c2)Sc2nccnc2N3)CC1` the melting point was 172 to 173 °C. With `CN1C2CCC1CC(NC(=O)CC1CC3(CCN(Cc4ccc5c(c4)Nc4nccnc4S5)CC3)C1)C2` (centres unmarked) the melting point was 181 to 184 °C. In the case of `OCCC1C2CCCC1CN(Cc1ccc3c(c1)Nc1nccnc1S3)C2` (centres unmarked), the melting point is reported as 123 to 127 °C. Work on `CN(CCCCCC(=O)O)Cc1ccc2c(c1)Nc1nccnc1S2` yielded a melting point of 191 to 193 °C. `O=C(O)CCCN1CCC(NCc2ccc3c(c2)Nc2nccnc2S3)CC1` gave a melting point of 121 to 124 °C. Molecule `C/C(=C\c1c(C)ncn1Cc1ccc2c(c1)Nc1nccnc1S2)C(=O)O` has a melting point of over 298 °C. Molecule `CCCCNC(=O)OCc1ccc2c(c1)Nc1nccnc1S2` has a melting point of 169 to 171 °C. Work on `C#CC/N=C(\N)Cc1ccc2c(c1)Nc1nccnc1S2.Cl` yielded a melting point of 222 to 223 °C. In the case of `c1cnc2c(n1)Nc1cc(Cn3cnc4ncnc(N5CCOCC5)c43)ccc1S2`, the melting point is reported as 269 to 273 °C. With `OCCCc1ncnc2c1ncn2Cc1ccc2c(c1)Nc1nccnc1S2` the melting point was 174 to 177 °C. For `Cc1ncnc2c1ncn2Cc1ccc2c(c1)Nc1nccnc1S2`, the melting point was 276 to 278 °C. In the case of `CN(C)c1nc(N(C)C)c2ncn(Cc3ccc4c(c3)Nc3nccnc3S4)c2n1`, the melting point is reported as 239 to 240 °C. Work on `Nc1ncccc1NCc1ccc2c(c1)Nc1nccnc1S2` yielded a melting point of 225 to 228 °C. In the case of `c1cnc2c(n1)Nc1cc(CN3CCc4sccc4C3)ccc1S2`, the melting point is reported as 182 to 184 °C. `O=C(O)CNC(=O)NC1CCN(Cc2ccc3c(c2)Nc2nccnc2S3)CC1` gave a melting point of 207 to 210 °C. Work on `C[C@@H]1CN(c2ncnc3c2ncn3Cc2ccc3c(c2)Nc2nccnc2S3)C[C@H](C)O1` yielded a melting point of 227 to 229 °C. Work on `COC1CCN(Cc2ccc3c(c2)Nc2nccnc2S3)CC1` yielded a melting point of 172 to 174 °C. With `c1ccc(C2CCN(c3ncnc4c3ncn4Cc3ccc4c(c3)Nc3nccnc3S4)CC2)cc1` the melting point was 239 to 241 °C. In the case of `Cl.O[C@@H]1CN(Cc2ccc3c(c2)Nc2nccnc2S3)C[C@H]1O` (relative stereo), the melting point is reported as 241 to 242 °C (dec.). For `O=C1CC2(CCN(Cc3ccc4c(c3)Nc3nccnc3S4)CC2)CO1`, the melting point was 180 to 182 °C. Work on `COc1cc(C2CCN(Cc3ccc4c(c3)Nc3nccnc3S4)CC2)cc(CC(=O)O)c1OC` yielded a melting point of 138 to 140 °C. In the case of `O=C(O)CC1CC2(C1)C1CCCC2CN(Cc2ccc3c(c2)Nc2nccnc2S3)C1` (centres unmarked), the melting point is reported as 199 to 201 °C. `O=S(=O)(NC1CCN(Cc2ccc3c(c2)Nc2nccnc2S3)CC1)N1CCOCC1` showed a melting point of 189 to 190 °C. `CN1c2ccc(C(O)c3cccs3)cc2Nc2nccnc21` (centres unmarked) gave a melting point of over 275 °C. `NC(=O)C1CCN(Cc2ccc3c(c2)Nc2nccnc2O3)CC1` showed a melting point of 287 to 288 °C. Work on `CCOC(=O)COc1ccc(NCc2ccc3c(c2)Nc2nccnc2S3)cn1` yielded a melting point of 230 to 235 °C. Molecule `O=C(O)c1ccc(CC2CCN(Cc3ccc4c(c3)Nc3nccnc3S4)CC2)cc1` has a melting point of 158 to 161 °C. Work on `OC(C#Cc1ccccc1)c1ccc2c(c1)Nc1nccnc1S2` (centres unmarked) yielded a melting point of 192 to 194 °C. With `CC(CCC1CCN(CCc2ccc3c(c2)Nc2nccnc2S3)CC1)C(=O)O` (centres unmarked) the melting point was 229 to 230 °C (dec.). Molecule `COc1ccc(C2CCN(Cc3ccc4c(c3)Nc3nccnc3S4)CC2)cc1CC(=O)O` has a melting point of 174 to 176 °C. `CC(CCC1CCN(Cc2ccc3c(c2)Sc2nccnc2N3)CC1)C(=O)O` (centres unmarked) showed a melting point of 221 to 222 °C. `CS(=O)(=O)NCCC1CCN(Cc2ccc3c(c2)Nc2nccnc2S3)CC1` gave a melting point of 168 to 170 °C. For `N#CN=C(Cc1ccc2c(c1)Nc1nccnc1S2)NCCS(=O)(=O)[O-].[Na+]`, the melting point was 213 to 215 °C. `NC(=O)NCCN1c2ccccc2Nc2nccnc21` showed a melting point of 231 to 233 °C. `O=S(=O)(NCCc1cn(Cc2ccc3c(c2)Nc2nccnc2S3)cn1)c1ccccc1` gave a melting point of 127 to 130 °C. Molecule `CN(Cc1ccc2c(c1)Nc1nccnc1S2)c1ccccc1` has a melting point of 172 to 174 °C. Molecule `COCN1c2cc(C(=O)OC)ccc2Sc2nccnc21` has a melting point of 151 to 152 °C. With `OC(c1ccccn1)c1nccn1Cc1ccc2c(c1)Nc1nccnc1S2` (centres unmarked) the melting point was 95 to 98 °C. For `O=C(O)CCCN1c2ccccc2Nc2nccnc21`, the melting point was 273 to 274 °C. `CNS(=O)(=O)CCN(C)Cc1ccc2c(c1)Nc1nccnc1S2` gave a melting point of 143 to 146 °C. For `CCOC(=O)CCCNC(Cc1ccc2c(c1)Nc1nccnc1S2)=NC#N`, the melting point was 154 to 155 °C. `CC(=O)NC1CCN(Cc2ccc3c(c2)Nc2nccnc2S3)CC1` gave a melting point of 212 to 214 °C. With `O=C(O)C1(c2ccccc2)CCN(Cc2ccc3c(c2)Nc2nccnc2S3)CC1` the melting point was over 297 °C. Work on `CC(C)(CCC1CCN(Cc2ccc3c(c2)Nc2nccnc2S3)CC1)C(=O)O` yielded a melting point of 180 to 185 °C. `CN(C)C(=O)/N=C(\N)Cc1ccc2c(c1)Nc1nccnc1S2` showed a melting point of 158 to 161 °C. Work on `CCC/C(=N\OCC(=O)O)C1CCN(Cc2ccc3c(c2)Nc2nccnc2S3)CC1` yielded a melting point of 193 to 195 °C. Work on `Nc1ncnc2c1ncn2Cc1ccc2c(c1)Nc1nccnc1S2` yielded a melting point of 290 °C. Work on `c1ccc2ncc(NCc3ccc4c(c3)Nc3nccnc3S4)cc2c1` yielded a melting point of 160 to 164 °C. With `CC1CC2CN(Cc3ccc4c(c3)Nc3nccnc3S4)CC(C1)C2CC(=O)O` (centres unmarked) [Example 78] the melting point was 142 to 146 °C. `CCOC(=O)/C=C/c1nccn1Cc1ccc2c(c1)Nc1nccnc1S2` gave a melting point of 213 to 215 °C. In the case of `O=C(O)/C=C/c1nccn1Cc1ccc2c(c1)Nc1nccnc1S2`, the melting point is reported as 243 to 244 °C. `Cc1cc(C)nc(NCc2ccc3c(c2)Nc2nccnc2S3)c1` showed a melting point of 162 to 165 °C. `CCc1nccn1Cc1ccc2c(c1)Nc1nccnc1S2` showed a melting point of 230 to 231 °C. `N#CN=C(N)c1ncnc2c1ncn2Cc1ccc2c(c1)Nc1nccnc1S2` gave a melting point of over 290 °C. Molecule `CNS(=O)(=O)NC1CCN(Cc2ccc3c(c2)Nc2nccnc2O3)CC1` has a melting point of 219 to 222 °C. With `C1=NCCCN1Cc1ccc2c(c1)Nc1nccnc1S2.Cl` the melting point was 238 °C (dec.). `O=C(O)C1CN(Cc2ccc3c(c2)Nc2nccnc2S3)C1` gave a melting point of 181 to 183 °C. For `c1cnc2c(n1)Nc1cc(Cn3cnc4ncncc43)ccc1S2`, the melting point was 277 to 280 °C. For `C(=C\c1ccc2c(c1)Nc1nccnc1S2)/c1ccncc1`, the melting point was over 275 °C. In the case of `CNS(=O)(=O)NCC1CN(Cc2ccc3c(c2)Nc2nccnc2S3)C1`, the melting point is reported as 173 to 176 °C. For `O=C(O)Cc1ccccc1C1CCN(Cc2ccc3c(c2)Nc2nccnc2S3)CC1`, the melting point was 152 to 154 °C. For `O=C(O)C1CC2CCC(C1)N2Cc1ccc2c(c1)Nc1nccnc1S2` (centres unmarked), the melting point was 158 °C (dec.). Work on `CS(=O)(=O)NCC1CN(Cc2ccc3c(c2)Nc2nccnc2S3)C1` yielded a melting point of 84 to 88 °C. For `CN1c2ccc(/C=C/C(=O)O)cc2Nc2nccnc21`, the melting point was 275 °C. For `O=C(O)CC1CC(C2CCN(Cc3ccc4c(c3)Nc3nccnc3S4)CC2)C1` (centres unmarked), the melting point was 215 to 220 °C.

— US6518423B1, “Benzopiperidine derivatives” (Eisai Co., Ltd., priority 1996, dated 2003)
